Values quoted from earlier work in patent US8324220B2 (priority 2003, dated 2012).

Columns and labels:
NaV1.3 = NaV1.3 (Homo sapiens, UniProt Q9NY46); details: read-out: TTX IC50
NaV1.5 = NaV1.5 (Homo sapiens, UniProt Q14524)
NaV1.6 = NaV1.6 (Homo sapiens, UniProt Q9UQD0); details: read-out: TTX IC50
NaV1.8 = NaV1.8 (Homo sapiens, UniProt Q9Y5Y9)
NaV1.9 = NaV1.9 (Homo sapiens, UniProt Q9UI33)
NaV1.1 = NaV1.1 (Homo sapiens, UniProt P35498); details: read-out: TTX IC50
NaV1.2 = NaV1.2 (Homo sapiens, UniProt Q99250); details: read-out: TTX IC50
neuropathic pain = details: human, in vivo

Sequence of NaV1.8 (Q9Y5Y9 whole entry, looked up): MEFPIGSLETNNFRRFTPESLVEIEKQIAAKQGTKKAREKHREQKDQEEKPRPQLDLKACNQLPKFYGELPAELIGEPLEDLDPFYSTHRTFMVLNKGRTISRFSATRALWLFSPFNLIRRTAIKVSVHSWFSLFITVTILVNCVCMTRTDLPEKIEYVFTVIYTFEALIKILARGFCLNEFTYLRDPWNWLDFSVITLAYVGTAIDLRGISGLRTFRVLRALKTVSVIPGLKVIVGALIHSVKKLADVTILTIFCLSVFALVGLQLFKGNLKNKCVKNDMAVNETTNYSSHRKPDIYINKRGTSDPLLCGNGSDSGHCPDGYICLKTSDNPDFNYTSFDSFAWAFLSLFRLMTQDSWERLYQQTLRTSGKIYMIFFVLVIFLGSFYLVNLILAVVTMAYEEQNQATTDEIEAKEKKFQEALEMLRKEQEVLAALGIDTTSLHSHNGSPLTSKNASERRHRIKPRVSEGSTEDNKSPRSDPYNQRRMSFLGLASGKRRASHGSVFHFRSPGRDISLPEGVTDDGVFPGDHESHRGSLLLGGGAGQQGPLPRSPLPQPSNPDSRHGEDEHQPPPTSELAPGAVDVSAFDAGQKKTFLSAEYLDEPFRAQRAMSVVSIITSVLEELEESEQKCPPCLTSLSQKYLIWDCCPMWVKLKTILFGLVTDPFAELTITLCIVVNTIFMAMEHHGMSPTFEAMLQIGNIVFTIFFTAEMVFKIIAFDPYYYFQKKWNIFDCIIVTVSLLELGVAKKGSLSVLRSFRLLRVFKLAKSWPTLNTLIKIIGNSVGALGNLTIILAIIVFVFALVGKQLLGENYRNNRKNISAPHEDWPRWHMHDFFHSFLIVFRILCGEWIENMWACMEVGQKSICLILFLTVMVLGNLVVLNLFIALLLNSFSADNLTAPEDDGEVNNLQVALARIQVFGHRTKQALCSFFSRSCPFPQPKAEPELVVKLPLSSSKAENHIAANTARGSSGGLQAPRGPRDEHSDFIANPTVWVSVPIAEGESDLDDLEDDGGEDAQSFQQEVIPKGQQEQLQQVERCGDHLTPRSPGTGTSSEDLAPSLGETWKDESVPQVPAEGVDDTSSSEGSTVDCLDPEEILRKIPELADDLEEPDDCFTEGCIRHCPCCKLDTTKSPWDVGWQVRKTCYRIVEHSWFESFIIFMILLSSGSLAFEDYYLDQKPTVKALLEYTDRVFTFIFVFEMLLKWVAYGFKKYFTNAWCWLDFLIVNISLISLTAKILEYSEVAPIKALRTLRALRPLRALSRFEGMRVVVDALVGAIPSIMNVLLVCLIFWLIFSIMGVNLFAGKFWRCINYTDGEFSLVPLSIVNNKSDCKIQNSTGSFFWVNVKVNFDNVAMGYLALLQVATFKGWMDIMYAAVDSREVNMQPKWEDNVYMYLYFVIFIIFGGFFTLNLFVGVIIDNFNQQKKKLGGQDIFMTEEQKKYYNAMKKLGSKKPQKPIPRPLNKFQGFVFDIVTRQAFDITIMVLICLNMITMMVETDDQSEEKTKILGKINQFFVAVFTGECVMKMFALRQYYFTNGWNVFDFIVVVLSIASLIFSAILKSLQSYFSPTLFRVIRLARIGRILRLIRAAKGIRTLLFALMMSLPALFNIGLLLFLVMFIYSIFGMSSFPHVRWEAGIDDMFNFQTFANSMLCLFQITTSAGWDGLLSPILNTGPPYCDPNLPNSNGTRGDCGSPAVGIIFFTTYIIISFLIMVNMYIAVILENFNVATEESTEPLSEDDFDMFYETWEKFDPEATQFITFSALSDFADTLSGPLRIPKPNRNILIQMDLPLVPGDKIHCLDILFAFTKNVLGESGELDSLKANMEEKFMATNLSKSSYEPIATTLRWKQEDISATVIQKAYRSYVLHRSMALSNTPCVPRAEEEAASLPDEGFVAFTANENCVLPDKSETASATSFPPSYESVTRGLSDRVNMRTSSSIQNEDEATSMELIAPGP
Sequence of NaV1.9 (Q9UI33 whole entry, looked up): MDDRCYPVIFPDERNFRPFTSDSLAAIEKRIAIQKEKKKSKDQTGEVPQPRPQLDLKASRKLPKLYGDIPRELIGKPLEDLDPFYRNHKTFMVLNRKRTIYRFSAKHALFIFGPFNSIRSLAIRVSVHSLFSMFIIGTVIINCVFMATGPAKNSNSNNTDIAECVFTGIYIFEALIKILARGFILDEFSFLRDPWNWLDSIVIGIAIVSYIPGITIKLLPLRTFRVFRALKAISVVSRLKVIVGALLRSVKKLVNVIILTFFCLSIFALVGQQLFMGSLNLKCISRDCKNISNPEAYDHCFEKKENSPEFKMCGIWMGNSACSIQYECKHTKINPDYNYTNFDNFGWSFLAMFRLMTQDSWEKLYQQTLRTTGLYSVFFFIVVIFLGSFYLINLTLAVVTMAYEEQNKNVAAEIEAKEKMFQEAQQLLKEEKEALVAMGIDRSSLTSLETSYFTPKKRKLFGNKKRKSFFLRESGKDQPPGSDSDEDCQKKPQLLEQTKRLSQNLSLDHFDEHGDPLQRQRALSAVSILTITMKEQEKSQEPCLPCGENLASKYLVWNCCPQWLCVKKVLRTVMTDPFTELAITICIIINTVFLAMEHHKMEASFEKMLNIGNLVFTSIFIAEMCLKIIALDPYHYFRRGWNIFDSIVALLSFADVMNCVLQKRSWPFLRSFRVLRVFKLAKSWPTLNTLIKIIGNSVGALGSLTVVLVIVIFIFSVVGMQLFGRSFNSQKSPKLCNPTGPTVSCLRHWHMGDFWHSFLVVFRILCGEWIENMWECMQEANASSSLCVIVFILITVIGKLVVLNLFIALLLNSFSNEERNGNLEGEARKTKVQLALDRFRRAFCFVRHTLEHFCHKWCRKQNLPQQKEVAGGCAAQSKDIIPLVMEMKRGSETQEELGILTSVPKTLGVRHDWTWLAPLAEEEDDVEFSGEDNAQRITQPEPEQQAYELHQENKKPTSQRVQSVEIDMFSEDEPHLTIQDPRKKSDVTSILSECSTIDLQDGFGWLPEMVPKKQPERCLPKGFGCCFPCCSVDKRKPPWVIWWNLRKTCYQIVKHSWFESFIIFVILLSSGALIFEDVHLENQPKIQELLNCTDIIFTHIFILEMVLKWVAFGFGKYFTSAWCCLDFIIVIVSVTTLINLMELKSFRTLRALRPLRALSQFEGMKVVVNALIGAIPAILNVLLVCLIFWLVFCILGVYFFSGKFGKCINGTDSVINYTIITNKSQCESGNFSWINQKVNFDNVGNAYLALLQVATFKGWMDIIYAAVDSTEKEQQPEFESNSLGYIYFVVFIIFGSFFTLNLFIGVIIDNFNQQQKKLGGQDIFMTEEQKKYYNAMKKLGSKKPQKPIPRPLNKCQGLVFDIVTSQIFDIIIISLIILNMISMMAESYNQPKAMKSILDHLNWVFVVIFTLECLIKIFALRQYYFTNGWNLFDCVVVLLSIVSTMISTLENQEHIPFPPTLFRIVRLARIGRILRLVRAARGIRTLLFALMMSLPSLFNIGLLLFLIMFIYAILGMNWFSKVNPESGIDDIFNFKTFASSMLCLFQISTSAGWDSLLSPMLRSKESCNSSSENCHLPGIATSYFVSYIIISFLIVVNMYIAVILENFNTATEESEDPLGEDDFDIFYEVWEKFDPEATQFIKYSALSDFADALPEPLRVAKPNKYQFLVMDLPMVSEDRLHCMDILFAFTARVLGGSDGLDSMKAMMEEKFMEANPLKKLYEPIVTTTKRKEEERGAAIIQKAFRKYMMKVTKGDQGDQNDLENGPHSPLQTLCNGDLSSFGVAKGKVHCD

| Compound | IC50 (NaV1.3) | block by TTX (NaV1.5) | IC50 (NaV1.6) | block by TTX (NaV1.8) | IC50 (NaV1.8; read-out: TTX IC50) | block by TTX (NaV1.9) | IC50 (NaV1.9; read-out: TTX IC50) | IC50 (NaV1.1) | IC50 (NaV1.2) | share of patients in which the drug works (neuropathic pain) |
| --- | --- | --- | --- | --- | --- | --- | --- | --- | --- | --- |
| NC1=N[C@H](O)[C@H]2[C@H]3O[C@]4(O)O[C@@H]([C@@H](O)[C@@]2(N1)[C@@H]4O)[C@]3(O)CO [TTX, tetrodotoxin] | 15 nM | resistant to block | 6 nM | resistant to block | > 50000 nM | resistant to block | 1000 nM | 10 nM | 10 nM |  |
| NCC1(CC(=O)O)CCCCC1 [Gabapentin] |  |  |  |  |  |  |  |  |  | 60% |
